Assay results reported in patent publication US20210196731A1, “COMPOSITIONS AND METHODS FOR TREATING OCULAR INFLAMMATION AND OCULAR SCARRING” (priority 2018, published 2021).

System: HTCFs
Assay: Lipid Mediator Secretion Assay I (ASA with and without melittin, LC-MS/MS)
Type: cell-based, human
Details: ASA 200 μg/ml
Description: The aim of this experiment was to assess the relative secretion of COX2 vs. acetylated-COX2 products from HTCFs after an inflammatory stimulus followed by exposure to ASA with and without an extremely potent PLA2 agonist—melittin. To this end, multiple primary HTCF cell lines were cultured in DMEM w/10% FBS in 6-well culture plates, incubated at 37 C and 5% CO2, until 90% confluent. The culture media was removed, wells washed with PBS, and then fresh DMEM w/0% FBS was added. After 24 hrs of serum starvation, fresh DMEM w/0% FBS was added, this time containing a physiologically relevant inflammation/wound healing induction mixture (1 ng/ml each of: IL-1b, TNFa, IFNγ, TGFb). After 12 hrs incubation, the induction media was removed, the wells were washed with PBS and fresh DMEM w/0% FBS was added containing one of three experimental treatments for an incubation period of 24 hrs: 1) vehicle control (DMEM w/0% FBS), and 2) ASA 200 (DMEM w/0% FBS and 200 μg/ml ASA), and 3) ASA/Mel. (DMEM w/0% FBS, 200 μg/ml ASA and 10 μg/ml of melittin, a potent PLA2 agonist). At 6, 12 and 24 hrs after addition of the experimental treatments, 250 ul of supernatant was removed from each well, replaced with 250 ul of fresh DMEM w/0% FBS, and stored at −80° C. for subsequent LC-MS/MS analysis. After 24 hrs, the wells were washed with ice cold PBS three times and total cellular protein from the HTCF monolayer was collected for quantification and subsequent western blot analyses. The absolute quantity of protein within each culture well's HTCF monolayer was used as a means to standardize the relative secretion of lipid mediators by HTCFs into the culture well's supernatant.
Relative quantification of secreted lipid mediators was achieved using liquid chromatography tandem mass spectrometry combined with the addition of a known quantity of deuterated versions of the lipid mediators to each sample as internal standards (Item Numbers: #10007737, #320110, #314010, #11182, #315210, #319030, #390030, #10006410, #10006199, #334230, and #10008040, Cayman Chemical). This is a well-established method to determine the relative activity of cyclooxygenase, acetyl-COX2 and lipoxygenase biosynthetic pathways. In brief, the ratios of the integrated areas of the chromatographic peaks corresponding to each analyte and the integrated areas of the peaks corresponding to each analyte's internal standard (with known absolute quantity) are used to determine the relative quantity of each analyte in a given sample. […] The chromatographic profile of the ion count for each m/z transition was monitored, and the area under the peaks (ion intensity vs elution time) was integrated using commercial software (MultiQuant, Sciex).

[1] = alone or with melittin 10 μg/ml, vs vehicle control

## CC(=O)Oc1ccccc1C(=O)O [ASA, acetylsalicylic acid]
  relative amount of COX2 products relative to inf. cytokines control: decrease the relative amount of COX2 products relative to inf. cytokines control
Alone or with melittin 10 μg/ml, supernatant at 6, 12, 24 hrs
  relative secretion of precursor PUFAs (AA, DHA and EPA): no significant increase in relative secretion of precursor PUFAs
[1]
  relative secretion of acetylated-COX2 products: no significant increase in the relative secretion of acetylated-COX2 products
  secretion of COX2 products: decrease the secretion of COX2 products relative to vehicle control; however this effect was not statistically significant
